Assay [1] has as its target IL-17A(FLAG-Tagged): IL-17RA(His-Tagged) (Homo sapiens, UniProt Q16552, K93Q). Kind of assay: IL-17A(FLAG-Tagged): IL-17RA(His-Tagged) Binding Disruption Eu-HTRF Assay. The following applies: IL-17A/IL-17RA binding disruption, simple average if tested more than once. In outline:
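IC50 comes from a one-site competition fit of the HTRF 665/620 nm ratio. Compound dilutions (2-fold, 22 points) were held 1 h rt with FLAG-tagged IL-17A dimer, then His-tagged IL-17RA plus Eu-cryptate anti-FLAG and D2 anti-His antibodies were added for 2 h rt.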
(TR-FRET usually uses a lanthanide donor and a delayed reading to cut background.)

Assay [2] has as its system IL-17A-induced G-CSF production in human normal keratinocyte (NHK). Kind of assay: NHK Assay: IL-17A-induced G-CSF production in human normal keratinocytes. The following applies: Homo sapiens, Keratinocyte, 24 h, adult normal human keratinocytes, IL-17A 5 ng/mL, simple average if tested more than once. In kind it is cell-based. In outline: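 Adult normal human keratinocytes were seeded at 3000-4000 cells/well. Recombinant human IL-17A was pre-incubated 1 h at rt with titrated compound, then added to cells (final 5 ng/mL IL-17A, 0.2% DMSO, 5% FBS) for 24 h at 37° C. Supernatant G-CSF was measured by HTRF against a standard curve to give IC50.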

Sequence of UniProt Q16552 (Q16552 with tags, fused parts or gaps K93Q): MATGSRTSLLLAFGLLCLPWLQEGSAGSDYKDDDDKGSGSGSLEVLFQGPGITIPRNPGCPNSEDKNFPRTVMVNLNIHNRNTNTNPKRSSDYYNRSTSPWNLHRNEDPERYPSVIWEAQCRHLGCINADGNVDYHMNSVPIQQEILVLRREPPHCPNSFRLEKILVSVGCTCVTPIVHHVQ

As for `CCn1ncc(C(=O)N[C@H](c2cn3ncc([C@H](NC(=O)CCC(F)(F)F)C4CC4)cc3n2)C2CCC(F)(F)CC2)n1` [Example 59, N—((S)-(7-((R)-Cyclopropyl(4,4,4-trifluorobutanamido)methyl)imidazo[1,2-b]pyridazin-2-yl)(4,4-difluorocyclohexyl)methyl)-2-ethyl-2H-1,2,3-triazole-4-carboxamide], the values for the IC50 in assay [1] and in assay [2] were 0.42 µM and 3.6 µM, respectively.

`O=C(CCC(F)(F)F)N[C@@H](c1cnn2cc([C@@H](NC(=O)C3(F)CC3)C3CCC(F)(F)CC3)nc2c1)C1CC1` [Example 60, N—((S)-(7-((R)-Cyclopropyl(4,4,4-trifluorobutanamido)methyl)imidazo[1,2-b]pyridazin-2-yl)(4,4-difluorocyclohexyl)methyl)-1-fluorocyclopropane-1-carboxamide]: the IC50 in assay [1] worked out at 0.39 µM; in assay [2], 3.5 µM.

`O=C(CCC(F)(F)F)N[C@@H](c1cnn2cc([C@@H](NC(=O)c3ncnn3CC(F)(F)F)C3CCC(F)(F)CC3)nc2c1)C1CC1` [Example 61, N—((S)-(7-((R)-Cyclopropyl(4,4,4-trifluorobutanamido)methyl)imidazo[1,2-b]pyridazin-2-yl)(4,4-difluorocyclohexyl)methyl)-1-(2,2,2-trifluoroethyl)-1H-1,2,4-triazole-5-carboxamide]: the values for the IC50 in assay [1] and in assay [2] were 0.19 µM and 1.2 µM, respectively.

Regarding `CC1(C)CC1C(=O)N[C@H](c1cn2ncc([C@H](NC(=O)CCC(F)(F)F)C3CC3)cc2n1)C1CCC(F)(F)CC1` (stereo partly drawn) [Example 62, N—((S)-(7-((R)-Cyclopropyl(4,4,4-trifluorobutanamido)methyl)imidazo[1,2-b]pyridazin-2-yl)(4,4-difluorocyclohexyl)methyl)-2,2-dimethylcyclopropane-1-carboxamide], the IC50 in assay [1] is 0.83 µM; in assay [2], about 4 µM.

Consider `O=C(CCC(F)(F)F)N[C@@H](c1cnn2cc([C@@H](NC(=O)c3cnn(CC4CC(F)(F)C4)n3)C3CCC(F)(F)CC3)nc2c1)C1CC1` [Example 63, N—((S)-(7-((R)-Cyclopropyl(4,4,4-trifluorobutanamido)methyl)imidazo[1,2-b]pyridazin-2-yl)(4,4-difluorocyclohexyl)methyl)-2-((3,3-difluorocyclobutyl)methyl)-2H-1,2,3-triazole-4-carboxamide], for which the IC50 in assay [1] is 0.13 µM; in assay [2], 0.2 µM.

For the compound `COCCn1ncc(C(=O)N[C@H](c2cn3ncc([C@H](NC(=O)CCC(F)(F)F)C4CC4)cc3n2)C2CCC(F)(F)CC2)n1` [Example 64, N—((S)-(7-((R)-Cyclopropyl(4,4,4-trifluorobutanamido)methyl)imidazo[1,2-b]pyridazin-2-yl)(4,4-difluorocyclohexyl)methyl)-2-(2-methoxyethyl)-2H-1,2,3-triazole-4-carboxamide], the figures for the IC50 in assay [1] and in assay [2] were 0.63 µM and 2 µM, respectively.

Take `CC(C)n1nncc1C(=O)N[C@H](c1cn2ncc([C@H](NC(=O)CCC(F)(F)F)C3CC3)cc2n1)C1CCC(F)(F)CC1` [Example 65, N—((S)-(7-((R)-Cyclopropyl(4,4,4-trifluorobutanamido)methyl)imidazo[1,2-b]pyridazin-2-yl)(4,4-difluorocyclohexyl)methyl)-1-isopropyl-1H-1,2,3-triazole-5-carboxamide]: the IC50 in assay [1] was 0.11 µM; in assay [2], 0.072 µM.

In the case of `Cn1nnc(C(=O)N[C@H](c2cn3ncc([C@H](NC(=O)CCC(F)(F)F)C4CC4)cc3n2)C2CCC(F)(F)CC2)c1C(F)F` [Example 66, N—((S)-(7-((R)-Cyclopropyl(4,4,4-trifluorobutanamido)methyl)imidazo[1,2-b]pyridazin-2-yl)(4,4-difluorocyclohexyl)methyl)-5-(difluoromethyl)-1-methyl-1H-1,2,3-triazole-4-carboxamide], the IC50 in assay [1] is 0.23 µM; in assay [2], 3.5 µM.

One may read the IC50 as the concentration at which inhibition is half-maximal.
